Assay results as given in patent publication US20260060989A1, “Charged Ion Channel Blockers And Methods For Use” (Nocion Therapeutics, Inc., priority 2024, published 2026).

Experiments:
NaV1.7 [1] = molecular target: T1, NaV1.7 (Homo sapiens, UniProt Q15858); test: Whole cell patch clamp, internal block of NaV1.7 current (compound in intracellular solution); type: cell-based; conditions: test concentration 0.32 μM; text says intracellular inhibition (compound in internal solution), 5 Hz stimulation; read-out: NaV1.7 Extracellular Inhibition
T1 construct: expressed in transfected cells; host or cells: Tetracycline-inducible cell line kept under hygromycin and blasticidin selection
T1 sequence (Q15858 whole entry): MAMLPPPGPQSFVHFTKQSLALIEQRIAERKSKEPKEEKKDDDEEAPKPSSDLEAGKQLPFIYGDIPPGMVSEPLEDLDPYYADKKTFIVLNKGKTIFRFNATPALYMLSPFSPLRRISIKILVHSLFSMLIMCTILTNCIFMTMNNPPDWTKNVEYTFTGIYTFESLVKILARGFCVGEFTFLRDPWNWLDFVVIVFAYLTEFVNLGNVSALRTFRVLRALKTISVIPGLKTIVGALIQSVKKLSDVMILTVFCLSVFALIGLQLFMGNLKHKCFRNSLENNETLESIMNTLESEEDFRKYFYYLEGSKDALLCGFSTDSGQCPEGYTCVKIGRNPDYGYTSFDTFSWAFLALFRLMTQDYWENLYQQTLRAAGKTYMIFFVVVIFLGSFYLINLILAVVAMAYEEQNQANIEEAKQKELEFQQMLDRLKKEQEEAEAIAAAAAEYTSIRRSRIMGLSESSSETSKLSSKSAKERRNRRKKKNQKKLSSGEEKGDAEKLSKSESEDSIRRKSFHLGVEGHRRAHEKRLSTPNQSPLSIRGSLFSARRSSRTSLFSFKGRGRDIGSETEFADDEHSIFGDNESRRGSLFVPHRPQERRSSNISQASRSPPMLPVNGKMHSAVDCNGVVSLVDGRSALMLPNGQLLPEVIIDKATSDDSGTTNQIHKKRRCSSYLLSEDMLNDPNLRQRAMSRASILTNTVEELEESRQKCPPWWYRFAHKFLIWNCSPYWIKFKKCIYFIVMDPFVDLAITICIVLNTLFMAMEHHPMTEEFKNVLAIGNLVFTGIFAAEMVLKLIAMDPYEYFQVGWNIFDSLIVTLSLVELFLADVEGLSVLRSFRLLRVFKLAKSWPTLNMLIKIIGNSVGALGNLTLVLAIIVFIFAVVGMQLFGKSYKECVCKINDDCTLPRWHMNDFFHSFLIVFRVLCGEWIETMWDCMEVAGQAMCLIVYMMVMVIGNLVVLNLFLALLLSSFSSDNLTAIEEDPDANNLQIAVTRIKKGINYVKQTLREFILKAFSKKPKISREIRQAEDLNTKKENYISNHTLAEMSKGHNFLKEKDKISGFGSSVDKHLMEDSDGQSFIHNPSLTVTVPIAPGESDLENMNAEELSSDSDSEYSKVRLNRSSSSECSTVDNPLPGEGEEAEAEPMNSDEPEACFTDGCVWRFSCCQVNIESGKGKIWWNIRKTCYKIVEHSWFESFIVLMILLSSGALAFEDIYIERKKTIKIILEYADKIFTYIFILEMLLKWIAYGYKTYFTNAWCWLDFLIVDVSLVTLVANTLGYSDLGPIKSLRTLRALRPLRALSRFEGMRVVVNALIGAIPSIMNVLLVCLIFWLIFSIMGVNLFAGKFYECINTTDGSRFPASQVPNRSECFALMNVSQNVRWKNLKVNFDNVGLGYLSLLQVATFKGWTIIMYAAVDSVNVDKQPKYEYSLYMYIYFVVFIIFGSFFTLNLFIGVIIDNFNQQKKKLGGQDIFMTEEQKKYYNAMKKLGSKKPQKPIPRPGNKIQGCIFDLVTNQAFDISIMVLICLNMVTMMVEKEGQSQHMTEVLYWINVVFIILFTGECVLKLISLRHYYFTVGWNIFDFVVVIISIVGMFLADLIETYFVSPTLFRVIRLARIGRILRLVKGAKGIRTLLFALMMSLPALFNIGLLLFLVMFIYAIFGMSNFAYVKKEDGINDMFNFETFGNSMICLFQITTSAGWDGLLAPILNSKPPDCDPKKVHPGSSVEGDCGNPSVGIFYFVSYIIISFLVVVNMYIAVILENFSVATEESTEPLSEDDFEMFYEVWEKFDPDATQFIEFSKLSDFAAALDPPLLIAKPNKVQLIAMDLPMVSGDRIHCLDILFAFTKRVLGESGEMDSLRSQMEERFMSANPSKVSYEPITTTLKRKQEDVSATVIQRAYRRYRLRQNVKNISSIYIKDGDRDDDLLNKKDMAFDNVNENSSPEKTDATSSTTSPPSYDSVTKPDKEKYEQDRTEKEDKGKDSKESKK
Protocol: (§1) NaV1.7 was expressed upon induction with tetracycline. Cells were cultured in DMEM containing 10% dialyzed Fetal Bovine Serum (VWR, Radnor, PA), 1% Glutamax (VWR, Radnor, PA), 1% Penicillin-Streptomycin (VWR, Radnor, PA), 100 mg/L Hygromycin (Thermo Fisher Scientific, Waltham, MA and 5 mg/L Blasticidin (Alfa Aesar, Haverhill, MA). Cells were grown and maintained at 37° C. in a humidified environment containing 10% CO2 in air. Cells were detached from the culture flask for passage and harvested using 0.05% Trypsin-EDTA (Thermo Fisher Scientific, Waltham, MA). To induce NaV1.7, cells were induced with tetracycline (0.1-1 μg/mL, IBI Scientific, Peosta, IA) the day before recording and plated onto 24-well plates. Cells were washed with DPBS (VWR, Radnor, PA), trypsinized and then triturated five times in 10 mL of growth media to break apart cell aggregates. […]
(§2) Once the recording was started, the voltage protocol was run at 30 second intervals for 5 minutes to get a stable baseline. […] Currents were recorded using PatchMaster software with Heka EPC10 (HEKA Electronics, Lambrecht, Germany). […]
(§3) The data was plotted using the Patchmaster software (HEKA Electronics, Lambrecht, Germany) and analyzed by plotting the minimum current during the voltage step to −20 mV (peak inward current) as a function of time. […]

NaV1.7 [2] = molecular target: T1, NaV1.7; test: Whole cell patch clamp, external block of NaV1.7 current (compound in external solution); type: cell-based; conditions: test concentration 10 μM; compound applied in external solution for 5 minutes, 5 Hz stimulation; read-out: NaV1.7 Extracellular Inhibition
Protocol: as §1, §2, §3

With Cc1cccc(C)c1NC(=O)C[N+]1(CCOC(=O)c2ccccc2Cl)CCCCCC1 [Compound 1, 1-(2-((2-chlorobenzoyl)oxy)ethyl)-1-(2-((2,6-dimethylphenyl)amino)-2-oxoethyl)azepan-1-ium bromide] the inhibition at 0.32 µM (NaV1.7 [1]) was greater than 70% and the inhibition at 10 µM (NaV1.7 [2]) was 40 to 70%.
